Assay [1] concerns HT-29. The assay can be described thus: Inhibition of cell proliferation in human HT-29 cells at 10 uM after 72 hrs by MTS assay relative to control. Type of assay: functional. The note with it: HT-29, 72 h.
The subject of assay [2] is HT-29. The assay can be described thus: Inhibition of cell proliferation in human HT-29 cells at 1 uM after 72 hrs by MTS assay relative to control. Type of assay: functional. The note with it: HT-29, 72 h.
The target of assay [3] is Prohibitin-2 (Homo sapiens) (UniProt Q99623). Nature of the assay: Induction of PHB2-mediated melanogenesis in human HBL cells assessed as pigmentation at 1 uM after 10 days relative to control. The class given is cell-based.
Chain of Prohibitin-2 (Homo sapiens) (Q99623 whole entry): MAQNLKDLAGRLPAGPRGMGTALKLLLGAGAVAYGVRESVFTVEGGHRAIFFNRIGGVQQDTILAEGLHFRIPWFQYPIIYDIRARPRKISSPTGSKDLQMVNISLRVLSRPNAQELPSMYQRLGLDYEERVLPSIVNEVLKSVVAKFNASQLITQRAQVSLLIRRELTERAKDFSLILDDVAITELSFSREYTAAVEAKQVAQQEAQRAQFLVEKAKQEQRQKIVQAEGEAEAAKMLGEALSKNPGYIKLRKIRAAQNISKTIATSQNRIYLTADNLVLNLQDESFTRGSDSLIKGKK
Assay [4] has the same target. Nature of the assay: Binding affinity to PHB2 in human HBL cells assessed as upregulation of ERK phosphorylation at 1 to 10 uM after 24 hrs by Western blot analysis. Type of assay: cell-based.
The nature of assay [5]: Inhibition of cell proliferation in human EPC cells at 1 uM after 72 hrs by MTS assay relative to control. The class given is functional.
The subject of assay [6] is MCF7. Nature of the assay: Inhibition of cell proliferation in human MCF7 cells at 1 uM after 72 hrs by MTS assay relative to control. Type of assay: functional. The note with it: MCF7, 72 h.
The target in assay [7] is RAC-alpha serine/threonine-protein kinase (Homo sapiens) (UniProt P31749). The assay can be described thus: Inhibition of Akt phosphorylation in human HBL cells at 1 to 10 uM after 24 hrs by Western blot analysis. Type of assay: cell-based.
Chain of RAC-alpha serine/threonine-protein kinase (Homo sapiens) (P31749 whole entry): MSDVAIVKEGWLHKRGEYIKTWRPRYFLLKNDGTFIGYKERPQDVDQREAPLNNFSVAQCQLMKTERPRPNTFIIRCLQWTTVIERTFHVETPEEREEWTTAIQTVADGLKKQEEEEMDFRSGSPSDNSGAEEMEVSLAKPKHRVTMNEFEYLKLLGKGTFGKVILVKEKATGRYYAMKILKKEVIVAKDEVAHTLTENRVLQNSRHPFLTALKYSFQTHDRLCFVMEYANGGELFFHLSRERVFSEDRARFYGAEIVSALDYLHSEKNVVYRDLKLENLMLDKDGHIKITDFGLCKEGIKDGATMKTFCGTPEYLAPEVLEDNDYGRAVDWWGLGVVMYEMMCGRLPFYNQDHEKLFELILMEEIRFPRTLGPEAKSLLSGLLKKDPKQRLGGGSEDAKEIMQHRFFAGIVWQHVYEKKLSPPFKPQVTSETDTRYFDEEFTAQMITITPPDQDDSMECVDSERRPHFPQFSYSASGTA
Assay [8] deals with PC-3. Nature of the assay: Inhibition of cell proliferation in human PC3 cells at 10 uM after 72 hrs by MTS assay relative to control. Type of assay: functional. The note with it: PC-3, 72 h.
In assay [9] the target is Prohibitin-2 (Homo sapiens) (UniProt Q99623). Nature of the assay: Induction of PHB2-mediated melanogenesis in human HBL cells assessed as pigmentation at 10 uM after 10 days relative to control. The class given is cell-based.
Assay [10] shares this target. The assay can be described thus: Binding affinity to PHB2 in human HBL cells assessed as upregulation of tyrosinase protein expression at 1 to 10 uM after 24 hrs by Western blot analysis. The class given is cell-based.
Assay [11] relates to KB. The assay can be described thus: Inhibition of cell proliferation in human KB cells at 10 uM after 72 hrs by MTS assay relative to control. Type of assay: functional.
The target of assay [12] is T1, Prohibitin 1 (Homo sapiens) (UniProt P35232).
T1 sequence (whole entry): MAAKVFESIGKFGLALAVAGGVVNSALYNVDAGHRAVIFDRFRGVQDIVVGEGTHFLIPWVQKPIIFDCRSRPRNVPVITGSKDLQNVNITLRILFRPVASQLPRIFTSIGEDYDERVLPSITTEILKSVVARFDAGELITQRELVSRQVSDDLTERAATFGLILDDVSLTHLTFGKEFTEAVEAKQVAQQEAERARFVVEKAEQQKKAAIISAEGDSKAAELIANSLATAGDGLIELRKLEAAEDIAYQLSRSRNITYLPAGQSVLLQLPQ
Nature of the assay: Downregulation of PHB1 in human HBL cells at 1 to 10 uM after 24 hrs by Western blot analysis. The class given is cell-based.

Assay [13] concerns HCT-116. The assay can be described thus: Inhibition of cell proliferation in human HCT116 cells at 10 uM after 72 hrs by MTS assay relative to control. Type of assay: functional. The note with it: HCT-116, 72 h.
Assay [14] has as its system HCT-116. Nature of the assay: Inhibition of cell proliferation in human HCT116 cells at 1 uM after 72 hrs by MTS assay relative to control. The class given is functional. The note with it: HCT-116, 72 h.
The subject of assay [15] is HL-60. Nature of the assay: Inhibition of cell proliferation in human HL60 cells after 72 hrs by MTS assay. Type of assay: functional, cell-based. To be noted: HL-60, 72 h.
For assay [16], the system named is MCF7. Nature of the assay: Inhibition of cell proliferation in human MCF7 cells at 10 uM after 72 hrs by MTS assay relative to control. The class given is functional. The note with it: MCF7, 72 h.
A short description of assay [17]: Inhibition of cell proliferation in human EPC cells at 10 uM after 72 hrs by MTS assay relative to control. Type of assay: functional.
The subject of assay [18] is KB. Nature of the assay: Inhibition of cell proliferation in human KB cells after 72 hrs by MTS assay. Type of assay: functional, cell-based.
For assay [19], the target named is Prohibitin-2 (Homo sapiens) (UniProt Q99623). The assay can be described thus: Binding affinity to PHB2 in human HBL cells assessed as upregulation of MITF protein expression at 1 to 10 uM after 24 hrs by Western blot analysis. The class given is cell-based.
The test system of assay [20] is LNCaP. The assay can be described thus: Inhibition of cell proliferation in human LNCAP cells at 1 uM after 72 hrs by MTS assay relative to control. Type of assay: functional.
Assay [21] has as its system HBL. Nature of the assay: Inhibition of cell proliferation in human HBL cells at 10 uM after 72 hrs by MTS assay relative to control. The class given is functional.
The subject of assay [22] is LNCaP. The assay can be described thus: Inhibition of cell proliferation in human LNCAP cells at 10 uM after 72 hrs by MTS assay relative to control. Type of assay: functional.
Assay [23] concerns HL-60. The assay can be described thus: Inhibition of cell proliferation in human HL60 cells at 1 uM after 72 hrs by MTS assay relative to control. The class given is functional. The note with it: HL-60, 72 h.
In assay [24] the target is Prohibitin-2 (Homo sapiens) (UniProt Q99623). The assay can be described thus: Binding affinity to PHB2 in human HBL cells assessed as LC3-2 accumulation at 1 to 10 uM after 24 hrs by Western blot analysis. Type of assay: cell-based.
Assay [25] has as its system KB. The assay can be described thus: Inhibition of cell proliferation in human KB cells at 1 uM after 72 hrs by MTS assay relative to control. Type of assay: functional.
Assay [26] concerns HL-60. The assay can be described thus: Inhibition of cell proliferation in human HL60 cells at 10 uM after 72 hrs by MTS assay relative to control. Type of assay: functional. To be noted: HL-60, 72 h.
Assay [27] has as its system HBL. The assay can be described thus: Inhibition of cell proliferation in human HBL cells at 1 uM after 72 hrs by MTS assay relative to control. Type of assay: functional.
Assay [28] concerns PC-3. Nature of the assay: Inhibition of cell proliferation in human PC3 cells at 1 uM after 72 hrs by MTS assay relative to control. Type of assay: functional. To be noted: PC-3, 72 h.
The target of assay [29] is T1, Prohibitin 1 (Homo sapiens). Nature of the assay: Binding affinity to PHB1 in human HBL cells using affigel conjugated compound after overnight incubation by pull down assay. The class given is cell-based.

pIC50: −log10 of the molar value. Active and inactive are the calls of the source. The calls are words filed in the database; no cut-off is given here.

Turning to `NCCOCCOCCNc1nc(NCc2cccc(F)c2)nc(Oc2c(F)c(F)c(F)c(F)c2F)n1`, the inhibition at 10 µM in assay [1] was 20%; in [8], 52%; in [11] it was 89%; in assay [13], 36%; in assay [16] it was 27%; in assay [17] it was 58%. The inhibition at 10 µM in [21] is 18%; in [22], 32%; in assay [26] it was 59%. For the same compound, the inhibition at 1 µM in assay [2] is 12%; in [5], 27%; in assay [6], 11%; in [14] it was 10%; in [20], 11%; in assay [23] it was 31%. Besides, the inhibition at 1 µM is 29% in [25], 9% in assay [27] and 15% in assay [28]. In addition, the fold change (FC) stood at 1.05 in assay [3] and 1.25 in assay [9]. In addition, the outcome in [4], in assay [10], in assay [12], in assay [19] and in assay [24] was Active. The inhibition entry in [7] was “Active”. Also, the pIC50 in assay [15] was 4.82; in [18] it was 4.48.

`Fc1c(F)c(F)c(Oc2nc(N3CCC(N4CCCCC4)CC3)nc(N3CCCc4ccccc4C3)n2)c(F)c1F`: the fold change (FC) in [3] stood at 0.87; in assay [9] it was 1.79. Besides, in assay [29], the outcome was Active.

Source of the values: ChEMBL document CHEMBL4270538, “Targeting prohibitin with small molecules to promote melanogenesis and apoptosis in melanoma cells” (Eur J Med Chem, 2018).
